{"source": "paper PMC12000319", "about": "“Proton conductance by human uncoupling protein 1 is inhibited by purine and pyrimidine nucleotides” (The EMBO Journal, 2025)", "molecules": {"B1": {"name": "Pro-macrobody PMb71 (VHH)", "VHH": "QVQLVESGGGLVQAGDSLRLSCAASGLTLKNYAMGWFRQAPGKEHEFVAVISWSGSGTSYADSVEGRFTISRDNAKNTAFLQMSSLKPEDTAVYYCAARDGGYGSRWPDEYTYWGQGTQVTVPP", "notes": "llama nanobody CA9871; Expressed from the vector pBXNPHM3 (Addgene 110099); also called CA9871; source: E. coli MC1061, purified (Ni-NTA, 3C cleavage, Strep-Tactin XT); not shown: His-tagged MBP, N-terminal, cleaved"}}, "key": {"human OGC (SLC25A11)": {"target": "T1, human OGC (SLC25A11) (Homo sapiens, UniProt Q02978)", "T1 construct": "His8 (N, cleaved yes); Factor Xa protease cleavage site (N, cleaved yes); made in house; host or cells: Saccharomyces cerevisiae strain W303.1B", "T1 sequence (Q02978 1-314)": "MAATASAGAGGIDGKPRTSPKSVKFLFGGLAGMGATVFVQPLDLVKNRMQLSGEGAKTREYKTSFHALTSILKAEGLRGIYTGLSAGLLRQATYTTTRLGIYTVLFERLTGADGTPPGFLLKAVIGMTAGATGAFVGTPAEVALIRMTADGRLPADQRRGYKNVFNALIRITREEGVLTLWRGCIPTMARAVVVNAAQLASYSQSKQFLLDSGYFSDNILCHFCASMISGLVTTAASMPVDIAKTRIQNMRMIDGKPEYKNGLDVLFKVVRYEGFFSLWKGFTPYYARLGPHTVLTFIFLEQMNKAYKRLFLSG", "assay": "Differential scanning fluorimetry (nanoDSF) thermal stability shift assay", "assay_type": "binding", "conditions": "1 mM nucleotide, pH 6.0, single repeats (source data Fig. 4A)", "source_text": "(§1) UCP1 is phylogenetically related to mitochondrial dicarboxylate carriers, gaining thermogenic properties as a later evolutionary development (Hughes et al, [2009]; Robinson et al, [2008]). The mitochondrial dicarboxylate carrier (DIC, SLC25A10) and oxoglutarate carrier (OGC, SLC25A11) are most closely related to UCP1 (Gaudry et al, [2019]; Hughes et al, [2009]) and share many residues involved in nucleotide binding in UCP1, such as the arginine triplet at the contact points, R92 and Q85 (Jones et al, [2024]). Given the similarity of the central cavity of UCP1, OGC and DIC, we tested whether the dicarboxylate carriers have the ability to bind nucleotides. For this purpose, we purified human DIC and OGC, and tested whether nucleotides were able to generate a thermostability shift, as observed for their physiological substrates (Pyrihová et al, [2024]). However, all tested nucleotides caused a negligible shift with both DIC or OGC at all pH values tested between 6.0 and 8.0 (Fig. 4A; Appendix Fig. S5). Thus, despite having many residues in common (Fig. 4B–D), UCP1 has evolved to have a few specific residues that allow high-affinity binding of nucleotides without a strong selection for nucleobase.\n(§2) Differential scanning fluorimetry (nanoDSF) (Alexandrov et al, [2008]) was carried out with 2 µg UCP1, DIC or OGC protein (100 mM MES/HEPES, pH range 6.0–8.0, 25 mM NaCl, 1 mM TCEP, 0.01% lauryl maltose neopentyl glycol and 0.01 mg/mL tetraoleoyl cardiolipin) and, when required, 1 mM nucleotide, as indicated. The proteins have the following number of tryptophans: UCP1 (two); OGC (two); DIC (one). The samples were loaded into nanoDSF-grade standard glass capillaries. The temperature was increased by […] every minute from 25 to 95 °C, the intrinsic fluorescence was measured in a Prometheus NT.48 nanoDSF device, and the apparent Tm was calculated with the PR.ThermControl software (NanoTemper Technologies)."}, "human DIC (SLC25A10)": {"target": "T2, human DIC (SLC25A10) (Homo sapiens, UniProt Q9UBX3)", "T2 construct": "His8 (N, cleaved yes); Factor Xa protease cleavage site (N, cleaved yes); made in house; host or cells: Saccharomyces cerevisiae protease-deficient strain BJ2186", "T2 sequence (Q9UBX3 1-287)": "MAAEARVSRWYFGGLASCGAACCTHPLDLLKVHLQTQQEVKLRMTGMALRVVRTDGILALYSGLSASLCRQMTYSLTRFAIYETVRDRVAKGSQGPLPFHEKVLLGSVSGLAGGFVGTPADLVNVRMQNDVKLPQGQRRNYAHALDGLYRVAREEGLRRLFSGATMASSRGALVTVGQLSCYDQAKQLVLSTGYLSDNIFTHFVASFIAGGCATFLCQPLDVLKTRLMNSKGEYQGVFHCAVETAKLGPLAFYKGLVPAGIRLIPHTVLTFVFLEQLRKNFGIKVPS", "assay": "Differential scanning fluorimetry (nanoDSF) thermal stability shift assay", "assay_type": "binding", "conditions": "1 mM nucleotide, pH 6.0, single repeats (source data Fig. 4A)", "source_text": "as §1, §2"}, "UCP1 [1]": {"target": "T3, UCP1 (Homo sapiens, UniProt P25874)", "T3 construct": "His8 (N, cleaved yes); Factor Xa protease cleavage site (N, cleaved yes); made in house; host or cells: Saccharomyces cerevisiae strain W303.1B", "T3 sequence (P25874 1-307)": "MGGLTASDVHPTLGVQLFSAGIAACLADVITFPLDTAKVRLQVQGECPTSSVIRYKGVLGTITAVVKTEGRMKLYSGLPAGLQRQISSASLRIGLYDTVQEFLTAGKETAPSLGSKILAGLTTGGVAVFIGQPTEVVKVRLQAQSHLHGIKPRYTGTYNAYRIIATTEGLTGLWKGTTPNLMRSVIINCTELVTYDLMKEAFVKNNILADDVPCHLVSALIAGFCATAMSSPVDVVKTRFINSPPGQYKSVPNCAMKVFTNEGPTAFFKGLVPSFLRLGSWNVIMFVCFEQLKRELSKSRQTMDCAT", "assay": "Isothermal titration calorimetry of nucleotide binding", "design": "isotherm data point (enthalpy change per injection): unit not given here", "conditions": "for isotherm data point (enthalpy change per injection): representative isotherm"}, "UCP1 [2]": {"target": "T3, UCP1", "assay": "Liposome reconstitution and proton conductance assay (pyranine fluorescence)", "assay_type": "biochemical", "conditions": "UCP1 proteoliposomes, 200 µM oleic acid alone, 2.5 µM valinomycin; single reconstitutions"}, "[3]": {"target": "T4, human uncoupling protein 1 (human, UniProt P25874)", "T4 construct": "human uncoupling protein 1 (UCP1, SLC25A7), Uniprot P25874; Detergent-solubilised, with tetraoleoyl cardiolipin; also called UCP1; SLC25A7; source: Saccharomyces cerevisiae W303.1B, purified from mitochondria (Ni Sepharose, on-column Factor Xa cleavage); not shown: His8, N-terminal, cleaved", "assay": "cryo-EM structure; UCP1, PMb65 and PMb71 mixed stoichiometrically, overnight at 4 °C; complex separated by SEC (20 mM MES pH 6.0, 150 mM NaCl, 0.02% lauryl maltose neopentyl glycol, 0.02 mg/mL tetraoleoyl cardiolipin, 1 mM TCEP); 2 mM UTP and 2 mM D-maltose added; 3.03 Å", "conditions": "both partners purified"}}, "note": "“And” between values parts separate entries of the source, which are not always exact repeats. Equal entries are not always repeated.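 Throughout, for Kd: purified human UCP1 in cacodylate buffer with lauryl maltose neopentyl glycol and cardiolipin, titrated with nucleotides, isotherms fitted by one-site model yielding ΔH, Kd and stoichiometry.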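 Throughout, for binding affinity to UCP1 (in words): purified human UCP1 in cacodylate buffer with lauryl maltose neopentyl glycol and cardiolipin, titrated with nucleotides, isotherms fitted by one-site model yielding ΔH, Kd and stoichiometry.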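 Throughout, for isotherm data point (enthalpy change per injection): purified human UCP1 in cacodylate buffer with lauryl maltose neopentyl glycol and cardiolipin, titrated with nucleotides, isotherms fitted by one-site model yielding ΔH, Kd and stoichiometry.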"}
{"molecule": "Nc1ncnc2c1ncn2[C@@H]1O[C@H](COP(=O)(O)OP(=O)(O)OP(=O)(O)O)[C@@H](O)[C@H]1O", "note": "[ATP, adenosine triphosphate]", "values": [{"measurement": "change in apparent melting temperature (ΔTm) of hOGC", "setting": "human OGC (SLC25A11)", "value": "0.7 and 0.4"}, {"measurement": "change in apparent melting temperature (ΔTm) of hDIC", "setting": "human DIC (SLC25A10)", "value": "1.0 and 0.5 and 0.8"}, {"measurement": "binding affinity to UCP1 (in words)", "setting": "UCP1 [1]; ITC", "value": "highest binding affinities"}, {"measurement": "Kd", "setting": "UCP1 [1]; ITC, pH 6.0, 20 °C, mean ± standard deviation of three biological repeats (Fig. 2A-E)", "value": "880 ± 120", "unit": "nM"}, {"measurement": "Kd", "setting": "UCP1 [1]; ITC, single biological repeats (source data Fig. 2F)", "value": "810 nM and 800 nM and 1020 nM"}, {"measurement": "isotherm data point (enthalpy change per injection)", "setting": "UCP1 [1]; Molar ratio (Nucleotide/UCP) 0.120417, pH 6.0, 20 °C", "value": -35.3409}, {"measurement": "isotherm data point (enthalpy change per injection)", "setting": "UCP1 [1]; Molar ratio (Nucleotide/UCP) 0.428528, pH 6.0, 20 °C", "value": -34.4517}, {"measurement": "isotherm data point (enthalpy change per injection)", "setting": "UCP1 [1]; Molar ratio (Nucleotide/UCP) 0.491383, pH 6.0, 20 °C", "value": -33.5364}, {"measurement": "isotherm data point (enthalpy change per injection)", "setting": "UCP1 [1]; Molar ratio (Nucleotide/UCP) 0.554656, pH 6.0, 20 °C", "value": -34.076}, {"measurement": "isotherm data point (enthalpy change per injection)", "setting": "UCP1 [1]; Molar ratio (Nucleotide/UCP) 0.618348, pH 6.0, 20 °C", "value": -33.0757}, {"measurement": "isotherm data point (enthalpy change per injection)", "setting": "UCP1 [1]; Molar ratio (Nucleotide/UCP) 0.682464, pH 6.0, 20 °C", "value": -31.8617}, {"measurement": "isotherm data point (enthalpy change per injection)", "setting": "UCP1 [1]; Molar ratio (Nucleotide/UCP) 0.811976, pH 6.0, 20 °C", "value": -26.1456}, {"measurement": "isotherm data point (enthalpy change per injection)", "setting": "UCP1 [1]; Molar ratio (Nucleotide/UCP) 0.877378, pH 6.0, 20 °C", "value": -22.2535}, {"measurement": "isotherm data point (enthalpy change per injection)", "setting": "UCP1 [1]; Molar ratio (Nucleotide/UCP) 0.943214, pH 6.0, 20 °C", "value": -16.8687}, {"measurement": "isotherm data point (enthalpy change per injection)", "setting": "UCP1 [1]; Molar ratio (Nucleotide/UCP) 1.0762, pH 6.0, 20 °C", "value": -7.301}, {"measurement": "isotherm data point (enthalpy change per injection)", "setting": "UCP1 [1]; Molar ratio (Nucleotide/UCP) 1.14336, pH 6.0, 20 °C", "value": -4.354}, {"measurement": "isotherm data point (enthalpy change per injection)", "setting": "UCP1 [1]; Molar ratio (Nucleotide/UCP) 1.21096, pH 6.0, 20 °C", "value": -2.46}, {"measurement": "isotherm data point (enthalpy change per injection)", "setting": "UCP1 [1]; Molar ratio (Nucleotide/UCP) 1.41647, pH 6.0, 20 °C", "value": -1.066}, {"measurement": "isotherm data point (enthalpy change per injection)", "setting": "UCP1 [1]; Molar ratio (Nucleotide/UCP) 1.69692, pH 6.0, 20 °C", "value": -0.2462}, {"measurement": "isotherm data point (enthalpy change per injection)", "setting": "UCP1 [1]; Molar ratio (Nucleotide/UCP) 1.76819, pH 6.0, 20 °C", "value": 0.1511}, {"measurement": "isotherm data point (enthalpy change per injection)", "setting": "UCP1 [1]; Molar ratio (Nucleotide/UCP) 1.91217, pH 6.0, 20 °C", "value": -0.4754}, {"measurement": "isotherm data point (enthalpy change per injection)", "setting": "UCP1 [1]; Molar ratio (Nucleotide/UCP) 1.98488, pH 6.0, 20 °C", "value": 0.1711}]}
{"molecule": "CCCCCCCC/C=C\\CCCCCCCC(=O)O", "note": "[OA, oleic acid]", "values": [{"measurement": "Proton influx rate", "setting": "UCP1 [2]", "value": "908.51 nmol H+/min and 699.43 nmol H+/min and 609.97 nmol H+/min"}]}
{"molecule": "B1", "values": [{"measurement": "binding result", "setting": "[3]", "value": "binds"}]}
